Measured values taken from ChEMBL document CHEMBL5352423, “Discovery of potent human dihydroorotate dehydrogenase inhibitors based on a benzophenone scaffold” (Eur J Med Chem, 2022).
pIC50: −log10 of the molar value. ≈ marks a conversion by molar mass, not a printed value. Calls of active or inactive are those of the source. No cut-off for these calls is given here.

Columns and labels:
[1] = target: Voltage-gated inwardly rectifying potassium channel KCNH2 (Homo sapiens, UniProt Q12809); experiment: Inhibition of human ERG; format: toxicity
Chain of Voltage-gated inwardly rectifying potassium channel KCNH2 (Q12809 whole entry): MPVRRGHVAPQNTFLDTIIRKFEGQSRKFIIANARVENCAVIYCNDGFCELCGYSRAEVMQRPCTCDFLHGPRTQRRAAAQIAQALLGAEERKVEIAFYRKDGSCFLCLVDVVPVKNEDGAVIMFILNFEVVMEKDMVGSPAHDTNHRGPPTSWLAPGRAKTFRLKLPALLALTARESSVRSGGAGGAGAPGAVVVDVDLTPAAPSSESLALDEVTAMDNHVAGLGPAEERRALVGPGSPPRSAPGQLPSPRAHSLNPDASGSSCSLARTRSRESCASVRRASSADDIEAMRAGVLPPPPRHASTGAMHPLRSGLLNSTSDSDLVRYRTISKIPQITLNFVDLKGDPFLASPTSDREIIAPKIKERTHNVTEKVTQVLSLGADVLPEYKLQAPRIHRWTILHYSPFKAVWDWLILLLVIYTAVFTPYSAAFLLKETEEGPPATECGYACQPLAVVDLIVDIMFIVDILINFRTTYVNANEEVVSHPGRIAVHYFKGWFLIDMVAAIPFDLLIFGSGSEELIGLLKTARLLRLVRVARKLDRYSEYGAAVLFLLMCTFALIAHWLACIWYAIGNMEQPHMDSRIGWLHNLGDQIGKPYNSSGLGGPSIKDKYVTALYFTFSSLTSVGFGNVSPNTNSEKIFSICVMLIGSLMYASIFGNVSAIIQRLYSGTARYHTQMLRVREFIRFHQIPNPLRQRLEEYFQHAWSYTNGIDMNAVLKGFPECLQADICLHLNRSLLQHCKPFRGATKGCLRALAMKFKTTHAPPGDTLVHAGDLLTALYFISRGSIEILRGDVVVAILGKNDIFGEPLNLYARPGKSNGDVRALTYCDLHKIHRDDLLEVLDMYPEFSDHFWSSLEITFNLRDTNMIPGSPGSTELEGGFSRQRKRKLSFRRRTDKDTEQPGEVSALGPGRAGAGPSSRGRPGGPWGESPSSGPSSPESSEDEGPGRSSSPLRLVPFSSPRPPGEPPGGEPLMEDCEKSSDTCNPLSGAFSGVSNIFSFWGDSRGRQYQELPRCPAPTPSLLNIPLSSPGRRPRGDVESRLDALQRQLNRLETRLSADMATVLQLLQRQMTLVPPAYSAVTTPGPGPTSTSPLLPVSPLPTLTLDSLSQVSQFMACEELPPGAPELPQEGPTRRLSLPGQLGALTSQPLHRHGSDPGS

A-375 = experiment: Antiproliferative activity against human A-375 cells incubated for 96 hrs by MTT assay; format: functional, cell-based; conditions: A-375, 96 h
[2] = Toxicity in BALB/c mouse assessed as change in blood MCHC administered at 500 mg/kg, po for 14 days; format: organism-based; conditions: in vivo, 336 h, time 14 day
[3] = Toxicity in BALB/c mouse assessed as change in blood RBC administered at 500 mg/kg, po for 14 days; format: organism-based; conditions: in vivo, 336 h, time 14 day
KG-1 = experiment: Antiproliferative activity against human KG-1 cells incubated for 96 hrs by MTT assay; format: functional, cell-based; conditions: KG-1, 96 h
[4] = Cytotoxicity against human HL7702 cells incubated for 96 hrs by MTT assay; format: toxicity, cell-based, L02
[5] = Toxicity in BALB/c mouse assessed as change in blood WBC administered at 500 mg/kg, po for 14 days; format: organism-based; conditions: in vivo, 336 h, time 14 day
[6] = target: T1, Dihydroorotate dehydrogenase (quinone), mitochondrial (Homo sapiens, UniProt Q02127); experiment: Inhibition of human DHODH incubated for 30 mins
T1 sequence (Q02127 whole entry): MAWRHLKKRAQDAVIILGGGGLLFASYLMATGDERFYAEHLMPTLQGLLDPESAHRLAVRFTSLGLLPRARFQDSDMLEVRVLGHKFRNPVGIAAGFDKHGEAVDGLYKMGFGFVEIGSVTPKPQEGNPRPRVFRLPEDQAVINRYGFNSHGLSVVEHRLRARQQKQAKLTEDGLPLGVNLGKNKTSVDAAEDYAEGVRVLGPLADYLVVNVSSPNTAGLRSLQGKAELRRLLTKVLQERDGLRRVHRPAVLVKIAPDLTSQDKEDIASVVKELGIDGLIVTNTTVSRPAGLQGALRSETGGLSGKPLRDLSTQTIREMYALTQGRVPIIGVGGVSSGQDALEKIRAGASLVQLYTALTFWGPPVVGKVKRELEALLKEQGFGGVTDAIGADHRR

[7] = Toxicity in BALB/c mouse assessed as change in blood HCT administered at 500 mg/kg, po for 14 days; format: organism-based; conditions: in vivo, 336 h, time 14 day
HCT-116 [8] = experiment: Antitumor activity against human HCT-116 cells xenografted in NOD-SCID mouse assessed as tumor growth inhibition at 30 mg/kg, po administered for 24 days relative to control; format: functional; conditions: HCT-116, 576 h, time 24 day, read-out: TGI
[9] = Toxicity in BALB/c mouse assessed as histopathological changes in spleen administered at 500 mg/kg, po for 14 days; format: organism-based; conditions: in vivo, 336 h, time 14 day
[10] = Toxicity in NOD-SCID mouse xenografted with human Raji cells assessed as change in body weight at 30 mg/kg, po administered for 24 days; format: organism-based; conditions: in vivo, 576 h, time 24 day
Raji [11] = experiment: Antitumor activity against human Raji cells xenografted in NOD-SCID mouse assessed as tumor growth inhibition at 30 mg/kg, po administered for 24 days relative to control; format: functional; conditions: 576 h, time 24 day, read-out: TGI
Raji [12] = experiment: Antiproliferative activity against human Raji cells assessed as inhibition of cell growth at 0.05 uM relative to control; format: functional
[13] = Toxicity in BALB/c mouse assessed as change in blood neutrophil administered at 500 mg/kg, po for 14 days; format: organism-based; conditions: in vivo, 336 h, time 14 day
Raji [14] = experiment: Induction of cell cycle arrest in human Raji cells assessed as accumulation cells in S-phase at 0.125 uM for 24 hrs by PI/RNAse staining method (reference value: 42.8%); format: functional
[15] = Toxicity in BALB/c mouse assessed as change in blood MCH administered at 500 mg/kg, po for 14 days; format: organism-based; conditions: in vivo, 336 h, time 14 day
HCT-116 [16] = experiment: Antiproliferative activity against human HCT-116 cells assessed as inhibition of cell growth at 0.0125 to 0.2 uM; format: functional, cell-based; conditions: dose 0.0125-0.2 µM
HCT-116 [17] = experiment: Antiproliferative activity against human HCT-116 cells incubated for 96 hrs by MTT assay; format: functional, cell-based; conditions: HCT-116, 96 h
Raji [18] = experiment: Antiproliferative activity against human Raji cells assessed as inhibition of cell growth; format: functional, cell-based; conditions: dose 0.0125-0.2 µM
[19] = Cytotoxicity against human HCoEpiC cells incubated for 96 hrs by MTT assay; format: toxicity, cell-based
[20] = Toxicity in BALB/c mouse assessed as histopathological changes in kidney administered at 500 mg/kg, po for 14 days; format: organism-based; conditions: in vivo, 336 h, time 14 day
Kasumi 1 = experiment: Antiproliferative activity against human Kasumi 1 cells incubated for 96 hrs by MTT assay; format: functional, cell-based; conditions: Kasumi 1, 96 h
[21] = Aqueous solubility of compound; format: physicochemical; conditions: buffer
HCT-116 [22] = experiment: Induction of cell cycle arrest in human HCT-116 cells assessed as accumulation cells in S-phase at 0.0625 uM for 24 hrs by PI/RNAse staining method (reference value: 30.2%); format: functional
Raji [23] = experiment: Rescue of cell viability in human Raji cells assessed cell growth inhibition rate at 0.0125 to 0.2 uM in presence of uridine; format: functional; conditions: dose 0.0125-0.2 µM
[24] = Toxicity in NOD-SCID mouse xenografted with human Raji cells assessed as death at 30 mg/kg, po administered for 24 days; format: organism-based; conditions: in vivo, 576 h, time 24 day
[25] = Toxicity in BALB/c mouse assessed as change in blood PLT administered at 500 mg/kg, po for 14 days; format: organism-based; conditions: in vivo, 336 h, time 14 day
[26] = Lipophilicity, logP of compound; format: physicochemical; conditions: octanol/water
Raji [27] = experiment: Induction of cell cycle arrest in human Raji cells assessed as accumulation cells in S-phase at 0.0625 uM for 24 hrs by PI/RNAse staining method (reference value: 42.8%); format: functional
[28] = Toxicity in BALB/c mouse assessed as change in blood lymphocytes administered at 500 mg/kg, po for 14 days; format: organism-based, Lymphocyte; conditions: in vivo, 336 h, time 14 day
Raji [29] = experiment: Antiproliferative activity against human Raji cells assessed as inhibition of cell growth at 0.2 uM relative to control; format: functional
[30] = Toxicity in BALB/c mouse assessed as lethal dose administered orally for 14 days; conditions: in vivo, route po, time 14 day
HCT-116 [31] = experiment: Induction of cell cycle arrest in human HCT-116 cells assessed as accumulation cells in S-phase at 0.25 uM for 24 hrs by PI/RNAse staining method (reference value: 30.2%); format: functional
SUD4 = experiment: Antiproliferative activity against human SU-DHL-4 cells incubated for 96 hrs by MTT assay; format: functional, cell-based; conditions: SU-DHL-4, 96 h
[32] = Cytotoxicity against human NCM460 cells incubated for 96 hrs by MTT assay; format: toxicity, cell-based
[33] = target: T1, Dihydroorotate dehydrogenase (quinone), mitochondrial; experiment: Inhibition of human DHODH at 100 nM for 30 mins relative to control
Raji [34] = experiment: Antiproliferative activity against human Raji cells assessed as inhibition of cell growth at 0.025 uM relative to control; format: functional
[35] = Toxicity in BALB/c mouse assessed as change in blood RDW administered at 500 mg/kg, po for 14 days; format: organism-based; conditions: in vivo, 336 h, time 14 day
Raji [36] = experiment: Antiproliferative activity against human Raji cells assessed as inhibition of cell growth at 0.1 uM relative to control; format: functional
Raji [37] = experiment: Antiproliferative activity against human Raji cells incubated for 96 hrs by MTT assay; format: functional, cell-based
HCT-116 [38] = experiment: Induction of cell cycle arrest in human HCT-116 cells assessed as accumulation cells in S-phase at 0.125 uM for 24 hrs by PI/RNAse staining method (reference value: 30.2%); format: functional
[39] = Selectivity index ratio of IC50 for human HL7702 cells to IC50 for human Raji cells; format: toxicity; conditions: HL7702 cells and Raji cells, read-out: Ratio IC50
Raji [40] = experiment: Induction of cell cycle arrest in human Raji cells assessed as accumulation cells in S-phase at 0.25 uM for 24 hrs by PI/RNAse staining method (reference value: 42.8%); format: functional
[41] = Toxicity in BALB/c mouse assessed as change in blood HGB administered at 500 mg/kg, po for 14 days; format: organism-based; conditions: in vivo, 336 h, time 14 day
[42] = target: T1, Dihydroorotate dehydrogenase (quinone), mitochondrial; experiment: Inhibition of human DHODH at 1 uM for 30 mins relative to control
[43] = Toxicity in BALB/c mouse assessed as histopathological changes in lung administered at 500 mg/kg, po for 14 days; format: organism-based; conditions: in vivo, 336 h, time 14 day
Raji [44] = experiment: Antiproliferative activity against human Raji cells assessed as inhibition of cell growth at 0.0125 uM relative to control; format: functional
[45] = Toxicity in BALB/c mouse assessed as histopathological changes in liver administered at 500 mg/kg, po for 14 days; format: organism-based; conditions: in vivo, 336 h, time 14 day
U-937 = experiment: Antiproliferative activity against human U-937 cells incubated for 96 hrs by MTT assay; format: functional, cell-based; conditions: U-937, 96 h
[46] = Toxicity in BALB/c mouse assessed as change in blood MCV administered at 500 mg/kg, po for 14 days; format: organism-based; conditions: in vivo, 336 h, time 14 day
[47] = Toxicity in BALB/c mouse assessed as decrease in alkaline phosphatase administered at 500 mg/kg, po for 14 days; format: organism-based; conditions: in vivo, 336 h, time 14 day
[48] = Toxicity in BALB/c mouse assessed as change in blood MPV administered at 500 mg/kg, po for 14 days; format: organism-based; conditions: in vivo, 336 h, time 14 day
[49] = Toxicity in NOD-SCID mouse xenografted with human Raji cells assessed as change in body weight at 1.5 mg/kg, po administered for 24 days; format: organism-based; conditions: in vivo, 576 h, time 24 day
[50] = Toxicity in NOD-SCID mouse xenografted with human Raji cells assessed as death at 1.5 mg/kg, po administered for 24 days; format: organism-based; conditions: in vivo, 576 h, time 24 day
HCT-116 [51] = experiment: Antitumor activity against human HCT-116 cells xenografted in NOD-SCID mouse assessed as tumor growth inhibition at 1.5 mg/kg, po administered for 24 days relative to control; format: functional; conditions: HCT-116, 576 h, time 24 day, read-out: TGI
Mus musculus = experiment: Immunosuppressive activity in NOD-SCID mouse xenografted with human HCT-116 cells at 1.5 mg/kg, po for 21 days; format: functional, organism-based; conditions: time 21.0 day
[52] = Toxicity in NOD-SCID mouse xenografted with human HCT-116 cells assessed as change in body weight at 1.5 mg/kg, po administered for 24 days; format: organism-based; conditions: in vivo, 576 h, time 24 day
Raji [53] = experiment: animal or person; conditions: Mus musculus, po, 576 h, read-out: TGI
Description: Antitumor activity against human Raji cells xenografted in NOD-SCID mouse assessed as tumor growth inhibition at 1.5 mg/kg, po administered for 24 days relative to control

[54] = Toxicity in NOD-SCID mouse xenografted with human HCT-116 cells assessed as splenomegaly at 1.5 mg/kg, po administered for 21 days; format: organism-based; conditions: in vivo, 504 h, time 21 day

With `C/C(O)=C(\C#N)C(=O)Nc1cc(O[C@@H](C)C(F)(F)F)c(C(=O)c2ccccc2Cl)cc1F` the pIC50 [1] was < 4.00, the pIC50 (A-375) was 6.60 and the Activity [2] was “Non-Toxic”. For the same molecule, the Activity [3] was “Non-Toxic”, the pIC50 (KG-1) was 6.37 and the IC50 at 96 h [4] was 1100 nM. The Activity [5] was “Non-Toxic”, the pIC50 [6] was 7.96 and the Activity [7] was “Non-Toxic”. For the same molecule, the inhibition in vivo at 30 mg/kg (HCT-116 [8]) was 42.1%, the Activity [9] was “Non-Toxic” and the Activity [10] was “Non-Toxic”. The inhibition in vivo at 30 mg/kg (Raji [11]) was 58.3%, the inhibition at 0.05 µM (Raji [12]) was 36.8% and the Activity [13] was “Non-Toxic”. For the same molecule, the Activity (Raji [14]) was 60.6%, the Activity [15] was “Non-Toxic” and the Activity (HCT-116 [16]) was “Active”. For the same molecule, the pIC50 (HCT-116 [17]) was 6.85, the inhibition (Raji [18]) was “Dose-Dependent Effect” and the IC50 at 96 h [19] was 6800 nM. For the same molecule, the Activity [20] was “Non-Toxic”, the pIC50 (Kasumi 1) was 7.00 and the solubility [21] was 61.7 µg/mL (≈ 131 µM). For the same molecule, the Activity (HCT-116 [22]) was 44.6%, the “inhibition (INH)” value (Raji [23]) was <5% and the Activity [24] was “Non-Toxic”. For the same molecule, the Activity [25] was “Non-Toxic”, the logP [26] was 2.49 and the Activity (Raji [27]) was 54.2%. For the same molecule, the Activity [28] was “Non-Toxic”, the inhibition at 0.2 µM (Raji [29]) was 60.9% and the LD50 at 336 h [30] was 500 mg/kg. The Activity (HCT-116 [31]) was 60.6%, the pIC50 (SUD4) was 6.12 and the IC50 at 96 h [32] was 14200 nM. The inhibition [33] was 84.2%, the inhibition at 0.025 µM (Raji [34]) was 20.7% and the Activity [35] was “Non-Toxic”. The inhibition at 0.1 µM (Raji [36]) was 52.2%, the pIC50 (Raji [37]) was 7.22 and the Activity (HCT-116 [38]) was 58.9%. The selectivity ratio [39] was 18.3, the Activity (Raji [40]) was 67.1% and the Activity [41] was “Non-Toxic”. The inhibition [42] was 98.4%, the Activity [43] was “Non-Toxic” and the inhibition at 0.0125 µM (Raji [44]) was 17%. For the same molecule, the Activity [45] was “Toxic”, the pIC50 (U-937) was 6.66 and the Activity [46] was “Non-Toxic”. The Activity [47] was “Non-Toxic” and the Activity [48] was “Non-Toxic”.

In the case of `CCn1c(CO)nn(-c2cc(O[C@@H](C)C(F)(F)F)c(C(=O)Nc3c(F)cccc3Cl)cc2F)c1=O`, the Activity [49] was “Non-Toxic”, the Activity [50] was “Non-Toxic” and the inhibition in vivo at 1.5 mg/kg (HCT-116 [51]) was 44.4%. The Activity (Mus musculus) was “Active”, the Activity [52] was “Toxic” and the inhibition in vivo at 1.5 mg/kg (Raji [53]) was 71.4%. For the same molecule, the Activity [54] was “Toxic”.
